The values below come from the supplement of paper PMC8497498.

The subject of test [1] is Plasmodium vivax liver stage (primary human hepatocyte culture). Put plainly: maximum inhibition of schizont net growth area; higher = more active. Summed up:
(§1)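 Primary human hepatocytes were infected with P. vivax sporozoites taken from mosquitoes fed on patient isolates. Compounds were pin-transferred in 40 nL volumes from 1000× DMSO plates, either at 8 points (10 uM[…]) or at 12 points in duplicate (50 uM–280 pM). Fixed, immunostained wells were imaged by high-content imaging for schizont growth area, hypnozoite count and hepatic nuclei, with values normalised to DMSO and positive-control wells. Potency, maximum inhibition and cytotoxicity based on nuclei loss were derived from CDD Vault curves of the highest-quality run, after toxic bell-shaped points were removed.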

Test [2] concerns primary human hepatocytes. Put plainly: CC20 hepatic nuclei (20% reduction); higher = less toxic. Summed up:
as §1

In test [3] the test system is Plasmodium vivax liver stage (primary human hepatocyte culture). Summed up: as §1
The subject of test [4] is Plasmodium cynomolgi Berok K4 asexual blood stage. Put plainly: EC50 asexual blood stage growth. Put shortly: (§2)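 Reference compounds were tested against asexual blood-stage P. cynomolgi and P. falciparum in SYBR Green proliferation assays. For P. cynomolgi, stocks were diluted threefold in DMSO to ten points and dispensed acoustically at 500-fold dilution (top dose 10 µM), with vehicle and positive-control wells. Media held 0.5% AlbuMAX or 20% macaque serum. P. falciparum was assayed over 72 h with AlbuMAX. EC50 values are geometric means across independent experiments.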

In test [5] the test system is Plasmodium falciparum 3D7 asexual blood stage. Put plainly: EC50 asexual blood stage growth. The settings on record: serum: 0.5% AlbuMAX. Put shortly: as §2
[6] abbreviates: P. vivax isolate: Pv914, hepatocyte lot: BGW, assay mode: Prophylactic, 6-day.
The mark [7] stands for this setting: serum: 20% M. fascicularis serum.
Setting [8] is: P. vivax isolate: Pv992, hepatocyte lot: BGW, assay mode: Prophylactic, 6-day.
Setting [9] is: P. vivax isolate: Pv360, hepatocyte lot: UBV, assay mode: Radical Cure, 8-day (treatment from day 5 post-infection).
Setting [10] is: P. vivax isolate: Pv796, hepatocyte lot: BGW, assay mode: Radical Cure, 8-day (treatment from day 5 post-infection).
[11] abbreviates: P. vivax isolate: Pv557, hepatocyte lot: UBV, assay mode: Radical Cure, 8-day (treatment from day 5 post-infection).

The structures appear in SMILES notation.

Turning to `CCc1nc(N)nc(N)c1OCCCOc1ccccc1CCC(=O)O` [P218], in test [1] (setting [6]), the maximum inhibition is 101%. Moreover, the CC20 hepatic nuclei in test [2] (setting [6]) is above 10000 nM. Also, in test [3] (setting [6]), the EC50 hypnozoite quantity is above 10000 nM. Also, the “EC50 schizont net growth area” value in test [3] (setting [6]) stood at 51.1 nM. In addition, the “EC50 asexual blood stage growth” value in test [4] (serum: 0.5% AlbuMAX) stood at 0.7 nM; in test [4] (setting [7]) it was 1.7 nM; in test [5], 2 nM.
On to `CCN(CC)CCCC(C)Nc1cc(OC)cc2cccnc12` (configuration not stated) [Pamaquine], for which the maximum inhibition in test [1] (setting [8]) was 61%. The compound also returned a CC20 hepatic nuclei in test [2] (setting [8]) above 10000 nM. Moreover, the EC50 hypnozoite quantity in test [3] (setting [8]) is above 3330 nM. Further, in test [3] (setting [8]), the “EC50 schizont net growth area” value was above 10000 nM. The “EC50 asexual blood stage growth” value was 325 nM in test [4] (serum: 0.5% AlbuMAX), 187 nM in test [4] (setting [7]) and 3950 nM in test [5].
As for `COc1ccc2nc3cc(Cl)ccc3c(Nc3cc(CN4CCCC4)c(O)c(CN4CCCC4)c3)c2n1` [Pyronaridine], in test [1] (setting [6]), the maximum inhibition came out at 99.4%. Moreover, the CC20 hepatic nuclei in test [2] (setting [6]) worked out at 7910 nM. In addition, the EC50 hypnozoite quantity in test [3] (setting [6]) is above 3330 nM. In addition, the “EC50 schizont net growth area” value in test [3] (setting [6]) is above 3330 nM. The results for the “EC50 asexual blood stage growth” value in test [4] (serum: 0.5% AlbuMAX), in test [4] (setting [7]) and in test [5] were 3.5 nM, 4 nM and 5 nM, respectively.
Take `Clc1ccc2c(N[C@H]3CCCC[C@@H]3Nc3ccnc4cc(Cl)ccc34)ccnc2c1` [Ro 47-7737]: the maximum inhibition in test [1] (setting [9]) turned out to be 70.6%; in test [1] (setting [6]) it was 99%. Besides, the CC20 hepatic nuclei in test [2] (setting [9]) is above 10000 nM; in test [2] (setting [6]) it was above 3330 nM. Besides, the figures for the EC50 hypnozoite quantity in test [3] (setting [9]) and in test [3] (setting [6]) were above 10000 nM and above 3330 nM, respectively. Also, the “EC50 schizont net growth area” value in test [3] (setting [9]) and in test [3] (setting [6]) was above 3330 nM throughout. For the same compound, the entries for the “EC50 asexual blood stage growth” value in test [4] (serum: 0.5% AlbuMAX), in test [4] (setting [7]) and in test [5] were 4.2 nM, 3.6 nM and 2 nM, respectively.
For the compound `N#Cc1cc(NC(=O)C2c3ccccc3C(=O)N(CC(F)(F)F)C2c2cccnc2)ccc1F` (configuration not stated) [SJ733], the maximum inhibition in test [1] (setting [10]) was found to be 56.8%. For the same compound, the CC20 hepatic nuclei in test [2] (setting [10]) is above 50000 nM. In test [3] (setting [10]), the EC50 hypnozoite quantity was above 50000 nM. Further, the “EC50 asexual blood stage growth” value was found to be 538 nM in test [4] (serum: 0.5% AlbuMAX), 293 nM in test [4] (setting [7]) and 106 nM in test [5].
Consider `CN(C)[C@@H]1C(O)=C(C(N)=O)C(=O)[C@@]2(O)C(O)=C3C(=O)c4c(O)cccc4[C@@](C)(O)[C@H]3C[C@@H]12` [Tetracycline], for which the maximum inhibition in test [1] (setting [6]) turned out to be 56.7%. In addition, in test [2] (setting [6]), the CC20 hepatic nuclei is above 10000 nM. Further, the EC50 hypnozoite quantity in test [3] (setting [6]) is above 10000 nM. Besides, the “EC50 asexual blood stage growth” value in test [4] (serum: 0.5% AlbuMAX), in test [4] (setting [7]) and in test [5] was above 10000 nM in each case.
Take `C=C(NC(=O)C(=C)NC(=O)c1csc(C2=NC3c4csc(n4)C4NC(=O)c5csc(n5)C(C(C)(O)C(C)O)NC(=O)C5CSC(=N5)C(=CC)NC(=O)C(C(C)O)NC(=O)c5csc(n5)C3(CC2)NC(=O)C(C)NC(=O)C(=C)NC(=O)C(C)NC(=O)C(C(C)CC)NC2C=Cc3c(C(C)O)cc(nc3C2O)C(=O)OC4C)n1)C(N)=O` (configuration not stated) [Thiostrepton]: the maximum inhibition in test [1] (setting [9]) is 80.2%; in test [1] (setting [6]) it was 99.1%. The CC20 hepatic nuclei in test [2] (setting [9]) was above 10000 nM; in test [2] (setting [6]) it was above 3330 nM. For the same compound, the EC50 hypnozoite quantity was above 10000 nM in test [3] (setting [9]) and 4040 nM in test [3] (setting [6]). In addition, the “EC50 schizont net growth area” value in test [3] (setting [9]) was above 3330 nM; in test [3] (setting [6]), 2390 nM. The “EC50 asexual blood stage growth” value in test [4] (serum: 0.5% AlbuMAX) was 3930 nM; in test [4] (setting [7]), 9130 nM; in test [5], above 10000 nM.
In the case of `CCCCCCC[C@H]1CN[C@H](C(=O)NC(C(C)Cl)C2O[C@H](SC)[C@H](O)[C@@H](O)[C@H]2O)C1` (stereo partly drawn) [Trans-Mirincamycin], the maximum inhibition in test [1] (setting [6]) stood at 72.5%. For the same compound, the CC20 hepatic nuclei in test [2] (setting [6]) is above 10000 nM. This compound returned an EC50 hypnozoite quantity in test [3] (setting [6]) above 10000 nM. Further, the “EC50 asexual blood stage growth” value in test [4] (serum: 0.5% AlbuMAX), in test [4] (setting [7]) and in test [5] was above 10000 nM in each case.
With `Nc1ncc(-c2ccc(C(=O)N3CCNCC3)cc2)nc1-c1ccc(C(F)(F)F)cc1` [UCT943], the maximum inhibition in test [1] (setting [11]) came to 101%; in test [1] (setting [6]), 100%. For the same compound, the CC20 hepatic nuclei in test [2] (setting [11]) and in test [2] (setting [6]) was above 10000 nM each time. Also, the EC50 hypnozoite quantity in test [3] (setting [11]) was above 10000 nM; in test [3] (setting [6]), 4.27 nM. Also, the “EC50 schizont net growth area” value was 2.38 nM in test [3] (setting [11]) and 1.75 nM in test [3] (setting [6]). In addition, the “EC50 asexual blood stage growth” value in test [4] (serum: 0.5% AlbuMAX) was found to be 34.4 nM; in test [4] (setting [7]) it was 20.6 nM; in test [5], 318 nM.
